The source of these data is ChEMBL document CHEMBL1156842, “Discovery of 5-aryloxy-2,4-thiazolidinediones as potent GPR40 agonists” (Bioorg Med Chem Lett, 2010).

In general, bioavailability refers to dose-corrected exposure relative to a reference, in per cent. The Cmax is the peak of the concentration-time curve. Usually half-life stands for the time in which the quantity being followed falls by half. The term clearance denotes the volume of plasma or blood freed of the substance per unit of time. Broadly, the Tmax is the time at which the peak concentration occurs.

Active and inactive are the calls of the source. The rule behind the calls is not given here.

The subject of one series is Mus musculus. The series is described as follows: Reduction in glucose excursion in GPR40-/- lean mouse assessed as inhibition of glucose AUC at 30 mg/kg, po pretreated 1 hr before dextrose challenge by intraperitoneal glucose tolerance test. In kind it is functional, organism-based. On the set-up: dose 30 mg/kg.
Details: not given
For `Cc1cc(Oc2ncc(C(F)(F)F)cc2Cl)ccc1CC1SC(=O)NC1=O` (stereo not drawn), the outcome was inactive.

Test system in the next series: not listed separately
The experiment in a line: Oral bioavailability in mouse at 2 mg/kg. The format is ADME, organism-based. As to conditions: in vivo.
Consider `Cc1cc(Oc2ncc(C(F)(F)F)cc2Cl)ccc1CC1SC(=O)NC1=O` (stereo not drawn), for which the bioavailability was 100%.

The test system of the next series is Mus musculus. The series is described as follows: Reduction in glucose excursion in po dosed lean mouse pretreated 1 hr before dextrose challenge by intraperitoneal glucose tolerance test.
Details: not given
In kind it is functional, organism-based.
`Cc1cc(Oc2ncc(C(F)(F)F)cc2Cl)ccc1CC1SC(=O)NC1=O` (stereo not drawn): the Activity entry is “Dose-dependent effect”.

In another series the test system is Mus musculus. The experiment in a line: Reduction in glucose excursion in lean mouse at 3 to 100 mg/kg, po pretreated 1 hr before dextrose challenge by intraperitoneal glucose tolerance test.
Details: not given
As to `Cc1cc(Oc2ncc(C(F)(F)F)cc2Cl)ccc1CC1SC(=O)NC1=O` (stereo not drawn), the result was Active.

Test system in a further series: not listed separately
The experiment in a line: Plasma concentration in lean mouse at 30 mg/kg, po pretreated 1 hr before dextrose challenge measured after 2 hrs. The format is ADME, organism-based. On the set-up: dose 30 mg/kg, route oral.
Details: not given
Turning to `Cc1cc(Oc2ncc(C(F)(F)F)cc2Cl)ccc1CC1SC(=O)NC1=O` (stereo not drawn), the concentration at 2 h is 37 µM.

In the next series the target is T1, Free fatty acid receptor 1 (Homo sapiens, UniProt O14842). The series is described as follows: Agonist activity at human GPR40 by FLIPR assay in presence of 1% BSA. Particulars: read-out: EC50. The format is functional.
T1 sequence (O14842 whole entry): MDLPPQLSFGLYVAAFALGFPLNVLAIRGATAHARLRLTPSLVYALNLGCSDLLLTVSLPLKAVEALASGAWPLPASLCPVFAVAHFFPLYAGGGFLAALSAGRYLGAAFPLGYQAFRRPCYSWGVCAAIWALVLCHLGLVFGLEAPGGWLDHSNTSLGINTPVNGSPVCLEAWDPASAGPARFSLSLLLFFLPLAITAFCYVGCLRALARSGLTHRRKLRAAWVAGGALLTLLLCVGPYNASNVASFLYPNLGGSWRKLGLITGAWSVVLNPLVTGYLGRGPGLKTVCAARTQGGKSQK
For the molecule `O=C1NC(=O)C(Cc2ccc(Oc3ccccc3Cl)cc2)S1` (stereo not drawn), the EC50 is 1.19 µM.

In the case of `Cc1cccc(Oc2ccc(CC3SC(=O)NC3=O)cc2)n1` (stereo not drawn), the EC50 worked out at 2.62 µM.

Regarding `Cc1ccnc(Oc2ccc(CC3SC(=O)NC3=O)cc2)c1` (stereo not drawn), the EC50 was found to be 4.28 µM.

Consider `Cc1ccc(Oc2ccc(CC3SC(=O)NC3=O)cc2)c(C)c1` (stereo not drawn), for which the EC50 worked out at 0.121 µM.

On to `Cc1cc(C)cc(Oc2ccc(CC3SC(=O)NC3=O)cc2)c1` (stereo not drawn), for which the EC50 was 0.096 µM.

For the molecule `O=C1NC(=O)C(Cc2ccc(Oc3ccc(F)cc3)cc2)S1` (stereo not drawn), the EC50 was determined as 0.48 µM.

For the molecule `O=C1NC(=O)C(Cc2ccc(Oc3cc(Cl)cc(Cl)c3)cc2)S1` (stereo not drawn), the EC50 was found to be 0.207 µM.

Regarding `Cc1cc(Oc2ccc(C(F)(F)F)cc2Cl)ccc1CC1SC(=O)NC1=O` (stereo not drawn), the EC50 turned out to be 0.018 µM.

As to `O=C1NC(=O)C(Cc2ccc(CCc3ccccc3)cc2)S1` (stereo not drawn), the EC50 was found to be 1.08 µM.

Take `O=C1CC(Cc2ccc(Oc3ccc(Cl)cc3Cl)cc2)C(=O)N1` (stereo not drawn): the EC50 came to 6.45 µM.

For `O=C1NC(=O)C(Cc2ccc(Oc3ccc(C(F)(F)F)cc3Cl)cc2)S1` (stereo not drawn), the EC50 is 0.078 µM.

For `O=C1NC(=O)C(Cc2ccc(Oc3cccc(Cl)c3)cc2)S1` (stereo not drawn), the EC50 stood at 0.318 µM.

`COc1cc(Oc2ncc(C(F)(F)F)cc2Cl)ccc1CC1SC(=O)NC1=O` (stereo not drawn): the EC50 was 13.8 µM.

For `O=C1NC(=O)C(Cc2ccc(Oc3ncc(C(F)(F)F)cc3Cl)c3ccccc23)S1` (stereo not drawn), the EC50 was 23.6 µM.

On to `O=C1NC(=O)C(Cc2ccc(Oc3cccc(C(F)(F)F)n3)cc2)S1` (stereo not drawn), for which the EC50 came out at 1.63 µM.

With `Cc1cccc(Oc2ccc(CC3SC(=O)NC3=O)cc2)c1` (stereo not drawn), the EC50 stood at 0.203 µM.

In the case of `Cc1cc(Oc2ccc(CC3SC(=O)NC3=O)cc2)nc(C(F)(F)F)c1` (stereo not drawn), the EC50 worked out at 0.688 µM.

Regarding `Cc1ccc(Oc2ccc(CC3SC(=O)NC3=O)cc2)cc1C` (stereo not drawn), the EC50 came to 0.727 µM.

Take `O=C1NC(=O)C(Cc2ccc(Oc3ccccc3)cc2)S1` (stereo not drawn): the EC50 worked out at 0.307 µM.

With `Cc1cc(Oc2ncc(C(F)(F)F)cc2Cl)ccc1CC1SC(=O)NC1=O` (stereo not drawn), the EC50 was found to be 0.01 µM.

`O=C1NC(=O)C(Cc2ccc(C(=O)c3ccccc3)cc2)S1` (stereo not drawn): the EC50 worked out at 5.3 µM.

For `O=C1NC(=O)C(Cc2ccc(Oc3ccc(Cl)cc3Cl)cc2)O1` (stereo not drawn), the EC50 was found to be 4.02 µM.

As to `Cc1ccc(Oc2ccc(CC3SC(=O)NC3=O)cc2)cc1` (stereo not drawn), the EC50 was 0.547 µM.

On to `O=C1NC(=O)C(Cc2ccc(Oc3ncc(C(F)(F)F)cc3Cl)cc2)S1` (stereo not drawn), for which the EC50 was 0.069 µM.

For `O=C1NC(=O)C(Cc2ccc(Oc3ncc(C(F)(F)F)cc3Cl)cc2Cl)S1` (stereo not drawn), the EC50 amounted to 0.026 µM.

On to `O=C1NC(=O)C(Cc2ccc(Sc3ccccc3)cc2)S1` (stereo not drawn), for which the EC50 was 5.06 µM.

Consider `O=C1NC(=O)C(Cc2ccc(Oc3ncc(Cl)cc3Cl)cc2Cl)S1` (stereo not drawn), for which the EC50 worked out at 0.063 µM.

For the molecule `Cc1cccnc1Oc1ccc(CC2SC(=O)NC2=O)cc1` (stereo not drawn), the EC50 worked out at 1.09 µM.

Regarding `Cc1cc(Oc2ncc(C(F)(F)F)cc2Cl)cc(C)c1CC1SC(=O)NC1=O` (stereo not drawn), the EC50 is 5.45 µM.

As to `O=C1NC(=O)C(Cc2ccc(Oc3ccc(C(F)(F)F)cn3)cc2)S1` (stereo not drawn), the EC50 came out at 0.558 µM.

As to `O=C1NC(=O)C(Cc2ccc(OCc3ccccc3)cc2)S1` (stereo not drawn), the EC50 turned out to be 6.18 µM.

In the case of `O=C1NC(=O)C(Cc2ccc(Oc3cccc4ccccc34)cc2)S1` (stereo not drawn), the EC50 came to 0.135 µM.

As for `O=C1NC(=O)C(Cc2ccc(Cc3ccccc3)cc2)S1` (stereo not drawn), the EC50 is 9.28 µM.

As for `O=C1NC(=O)C(Cc2ccc(Oc3ccc(Cl)cc3)cc2)S1` (stereo not drawn), the EC50 turned out to be 0.24 µM.

As to `O=C1NC(=O)C(Cc2cccc(Oc3ccccc3)c2)S1` (stereo not drawn), the EC50 was 4.7 µM.

For `O=C1NC(=O)C(Cc2ccc(/C=C/c3ccccc3)cc2)S1` (stereo not drawn), the EC50 amounted to 2.09 µM.

On to `Cc1ccccc1Oc1ccc(CC2SC(=O)NC2=O)cc1` (stereo not drawn), for which the EC50 came to 0.124 µM.

`O=C1NC(=O)C(Cc2ccc(Oc3cc4ccccc4cn3)cc2)S1` (stereo not drawn): the EC50 is 0.144 µM.

Regarding `O=C1NC(=O)C(Cc2ccccc2Oc2ccccc2)S1` (stereo not drawn), the EC50 came to 11.3 µM.

As to `O=C1NC(=O)C(Cc2ccc(Oc3ncc(Cl)cc3Cl)cc2)S1` (stereo not drawn), the EC50 amounted to 0.09 µM.

On to `O=C1NC(=O)C(Cc2ccc(Oc3ncccc3C(F)(F)F)cc2)S1` (stereo not drawn), for which the EC50 is 2.29 µM.

As to `O=C1NC(=O)C(Cc2ccc(Oc3ccc(Cl)cn3)cc2)S1` (stereo not drawn), the EC50 came to 1.87 µM.

Take `O=C1NC(=O)C(Cc2ccc(Oc3ccc(Cl)cc3Cl)cc2C(F)(F)F)S1` (stereo not drawn): the EC50 was 0.088 µM.

As for `Cc1cccc(Oc2ccc(CC3SC(=O)NC3=O)cc2)c1C` (stereo not drawn), the EC50 was determined as 0.334 µM.

Turning to `Cc1ccc(C)c(Oc2ccc(CC3SC(=O)NC3=O)cc2)c1` (stereo not drawn), the EC50 was determined as 0.238 µM.

Regarding `O=C1NC(=O)C(Cc2ccc(Oc3ccc(Cl)cc3Cl)cc2)S1` (stereo not drawn), the EC50 turned out to be 0.101 µM.

On to `O=C1NC(=O)C(Cc2ccc(Oc3cc(C(F)(F)F)ccn3)cc2)S1` (stereo not drawn), for which the EC50 is 0.237 µM.

Regarding `Cc1ccc(Oc2ccc(CC3SC(=O)NC3=O)cc2)nc1` (stereo not drawn), the EC50 came out at 4.47 µM.

As to `Cc1cc(Oc2ccc(CC3SC(=O)NC3=O)cc2)cc(C)c1C#N` (stereo not drawn), the EC50 is 0.12 µM.

Turning to `Cc1cc(C(F)(F)F)cc(Oc2ccc(CC3SC(=O)NC3=O)cc2)n1` (stereo not drawn), the EC50 was 0.218 µM.

Consider `O=C1NC(=O)C(Cc2ccc(-c3ccccc3)cc2)S1` (stereo not drawn), for which the EC50 came out at 2.22 µM.

Take `COc1cc(Oc2ccc(Cl)cc2Cl)ccc1CC1SC(=O)NC1=O` (stereo not drawn): the EC50 amounted to 1.41 µM.

The same series, now with this note: read-out: pEC50 (converted).
With `Cc1nc(-c2ccc(C(F)(F)F)cc2)sc1CNc1ccc(C2CC2C(=O)O)cc1` (stereo not drawn), the EC50 is 0.01 µM.

As to `O=C(O)CCc1ccc(NCc2cccc(Oc3ccccc3)c2)cc1` [GW9508], the EC50 was 0.1 µM.

Test system in another series: not listed separately
The experiment in a line: Cmax in mouse at 2 mg/kg. The format is ADME, organism-based. On the set-up: dose 2 mg/kg. Particulars: in vivo.
As for `Cc1cc(Oc2ncc(C(F)(F)F)cc2Cl)ccc1CC1SC(=O)NC1=O` (stereo not drawn), the peak concentration (Cmax) is 1.4 µM.

Another series concerns the target T1, Free fatty acid receptor 1. The experiment in a line: Agonist activity at human GPR40 at 40 uM by FLIPR assay in presence of 1% BSA. In kind it is functional.
Details: not given
Consider `O=C1CCC(Cc2ccc(Oc3ccc(Cl)cc3Cl)cc2)C(=O)N1` (stereo not drawn), for which the Activity came to 6%.

For the molecule `CN1C(=O)NC(=O)C1Cc1ccc(Oc2ccc(Cl)cc2Cl)cc1` (stereo not drawn), the Activity turned out to be 2%.

With `O=C1NC(=O)C(Cc2ccc(Oc3ccc(C(F)(F)F)cc3Cl)c3ccccc23)S1` (stereo not drawn), the Activity stood at 46%.

Regarding `O=C1COC(Cc2ccc(Oc3ccc(Cl)cc3Cl)cc2)C(=O)N1` (stereo not drawn), the Activity came out at 23%.

Test system in the next series: not listed separately
The series is described as follows: Half life in mouse at 2 mg/kg. In kind it is ADME, organism-based. More on the design: dose 2 mg/kg. As to conditions: in vivo.
`Cc1cc(Oc2ncc(C(F)(F)F)cc2Cl)ccc1CC1SC(=O)NC1=O` (stereo not drawn): the half-life is 5.1 h.

Test system in a further series: not listed separately
The experiment in a line: Clearance in mouse at 2 mg/kg. In kind it is ADME, organism-based. More on the design: dose 2 mg/kg. Particulars: in vivo.
On to `Cc1cc(Oc2ncc(C(F)(F)F)cc2Cl)ccc1CC1SC(=O)NC1=O` (stereo not drawn), for which the clearance worked out at 1.9 mL/min/kg.

The subject of another series is Mus musculus. The series is described as follows: Reduction in glucose excursion in lean mouse assessed as inhibition of glucose AUC at 30 mg/kg, po pretreated 1 hr before dextrose challenge by intraperitoneal glucose tolerance test. In kind it is functional. More on the design: scale not given: the % may be the effect or the level left.
Details: not given
Regarding `Cc1cc(Oc2ncc(C(F)(F)F)cc2Cl)ccc1CC1SC(=O)NC1=O` (stereo not drawn), the Activity was determined as 73%.

Test system in another series: not listed separately
The series is described as follows: Tmax in mouse at 2 mg/kg. The format is ADME, organism-based. Particulars: in vivo. More on the design: dose 2 mg/kg.
On to `Cc1cc(Oc2ncc(C(F)(F)F)cc2Cl)ccc1CC1SC(=O)NC1=O` (stereo not drawn), for which the Tmax was determined as 3 h.
